Data on one compound can be found in patent publication US5059601A, “Imidazolone derivatives with activity on central nervous system and antihypertensive activity, preparation methods thereof, and pharmaceutical compositions containing them” (Istituto Lusofarmaco d'Italia S.p.A., priority 1989, dated 1991).

Data set [1] is described as follows: toxicity in rat (DL50, oral). The settings on record: in vivo, read-out: toxicity in rat expressed as DL50.
The subject of a further data set is SHR rat. Briefly: antihypertensive activity in SHR rat after oral administration. In kind it is in vivo. The settings on record: dose of 10 mg/kg/os. The text has this: Said compounds have in vitro good affinity against D2, 5-HT2, α1 receptors determined towards [3H]Spiperone, [3H]-ketanserine, and [3H]-prazosine respectively, using the methods described by Y.Z. Fields, R.D. Reisine, H.I. Yamamura, Brain Research 136, 578 (1977); Y.E. Leysen, C.Y.E. Nyemegers, Y.M. Van Neuten, P.M. Endladurong, Mol Pharmacol. 21, 322 (1981); P. Greengrass, R. Bremner, Eur. J. Pharmacol. 55, 323 (1979). They show a reduced toxicity in vivo, a good activity on central nervous system in various behaviour tests (e.g. stereotypy caused by apomorfine, central dopaminergic neuronal firing) and a good antihypertensive activity (determined in SHR rat after oral administration using the method reported by J. Pfeffer and others, J. Lab. Clin. Med. 78, 957 (1971)).

On to `COc1ccccc1N1CCN(CCc2[nH]c(=O)[nH]c2-c2ccc(F)cc2)CC1` [4-(4-fluorophenyl)-1,3-dihydro-5-[2-(4-(2-methoxyphenyl)-1-piperazinyl)ethyl]-2H-imidazol-2-one], for which the LD50 in data set [1] was over 2000 mg/kg. In addition, in the data set on SHR rat, the “decrease in systolic pressure” value is recorded as “about 21%”.
